Assay results reported in ChEMBL document CHEMBL1132768, “Differential antibacterial activity of moenomycin analogues on gram-positive bacteria” (Bioorg Med Chem Lett, 2000).
Values after ≈ are worked out from the molar mass of the structure shown.

Tests used:
[1] = test system: Escherichia coli; assay: Compound was evaluated for inhibition of peptidoglycan synthesis in Escherichia coli using [14C]-lipid II radioligand; assay type: functional, organism-based
[2] = test system: Escherichia coli; assay: Compound was evaluated for its antibacterial activity against Escherichia coli BAS849; assay type: functional
[3] = test system: Enterococcus faecalis; assay: Compound was evaluated for bactericidal activity against Enterococcus faecalis; assay type: functional; set-up: concentration or dose not given beside the values
[4] = test system: Escherichia coli; assay: Compound was evaluated for inhibition of peptidoglycan synthesis in Escherichia coli using UDP-[14C]-GlcNAc radioligand; assay type: functional, organism-based
[5] = test system: Enterococcus faecalis; assay: Compound was evaluated for its antibacterial activity against Enterococcus faecalis CL4877 (Van B); assay type: functional
[6] = test system: Enterococcus faecium; assay: Compound was evaluated for its antibacterial activity against Enterococcus faecium ATCC 49624; assay type: functional
[7] = test system: Enterococcus faecalis; assay: Compound was evaluated for its antibacterial activity against Enterococcus faecalis CL5244 (Van B); assay type: functional
[8] = test system: Enterococcus faecalis; assay: Compound was evaluated for inhibition of peptidoglycan synthesis in Enterococcus faecalis using [14C]lysine radioligand; assay type: functional, organism-based
[9] = test system: Staphylococcus epidermidis; assay: Compound was evaluated for bactericidal activity against Staphylococcus epidermidis; assay type: functional
[10] = test system: Staphylococcus aureus; assay: Compound was evaluated for bactericidal activity against Staphylococcus aureus; assay type: functional
[11] = test system: Enterococcus faecium; assay: Compound was evaluated for its antibacterial activity against Enterococcus faecium CL4931 (Van A); assay type: functional
[12] = test system: Enterococcus faecalis; assay: Compound was evaluated for its antibacterial activity against Enterococcus faecalis ATCC 29212; assay type: functional
[13] = test system: Staphylococcus aureus; assay: Compound was evaluated for its antibacterial activity against Staphylococcus aureus ATCC 29213; assay type: functional
[14] = test system: Enterococcus faecium; assay: Compound was evaluated for its antibacterial activity against Enterococcus faecium RLA1 strain resistant to ampicillin; assay type: functional
[15] = test system: Staphylococcus epidermidis; assay: Compound was evaluated for its antibacterial activity against Staphylococcus epidermidis ATCC 12228; assay type: functional
[16] = test system: Staphylococcus epidermidis; assay: Compound was evaluated for its antibacterial activity against […] ATCC 12228; assay type: functional
[17] = test system: Staphylococcus epidermidis; assay: Compound was evaluated for bactericidal activity against […]; assay type: functional
[18] = test system: Enterococcus faecalis; assay: Compound was evaluated for inhibition of peptidoglycan synthesis in Enterococcus faecalis using [14C]lysine radioligand; not applicable; assay type: functional, organism-based

Compound	IC50 [1] [nM]	MIC [2] [µg/mL]	Survival [3] [%]	IC50 [4] [nM]	MIC [5] [µg/mL]	MIC [6] [µg/mL]	MIC [7] [µg/mL]	IC50 [8] [µM]	Survival [9] [%]	Survival [10] [%]	MIC [11] [µg/mL]	MIC [12] [µg/mL]	MIC [13] [µg/mL]	MIC [14] [µg/mL]	MIC [15] [µg/mL]	MIC [16] [µg/mL]	Survival [17] [%]	IC50 [18]
CC(=O)N[C@@H]1[C@H](O[C@H]2[C@@H](O)[C@H](NC(C)=O)[C@H](OC3[C@@H](OP(=O)(O)OC[C@@H](OCCC(C)CCCCC(C)(C)CCC(C)CCC(C)CCCC(C)C)C(=O)O)O[C@@H](C(N)=O)[C@@](C)(O)[C@@H]3OC(N)=O)O[C@H]2CO[C@@H]2O[C@@H](CO)[C@@H](O)[C@H](O)[C@@H]2O)O[C@@H](C)[C@@H](O[C@@H]2O[C@@H](C(=O)NC3=C(O)CCC3=O)[C@H](O)[C@H](O)[C@@H]2O)[C@@H]1O (stereo partly specified)	98	0.31 (≈ 0.195 µM)	141	8.1	0.25 (≈ 0.157 µM)	> 25	0.25 (≈ 0.157 µM)	> 700	0.33	62	0.78 (≈ 0.49 µM)	0.08 (≈ 0.0502 µM)	0.16 (≈ 0.1 µM)	0.25 (≈ 0.157 µM)	0.31 (≈ 0.195 µM)	–	–	–
CC(=O)N[C@@H]1[C@H](O[C@H]2[C@@H](O)[C@H](NC(C)=O)[C@H](O[C@@H]3[C@@H](OP(=O)(O)OC[C@@H](OCCC(C)CCCCC(C)(C)CCC(C)CCC(C)CCCC(C)C)C(=O)O)O[C@@H](C(N)=O)[C@@](C)(O)[C@@H]3OC(N)=O)O[C@H]2CO[C@@H]2O[C@@H](CO)[C@@H](O)[C@H](O)[C@@H]2O)O[C@@H](C)[C@@H](O[C@@H]2O[C@@H](C(N)=O)[C@H](O)[C@H](O)[C@@H]2O)[C@@H]1O (stereo partly specified)	87	0.08 (≈ 0.0535 µM)	176	8.6	0.25 (≈ 0.167 µM)	> 25	0.25 (≈ 0.167 µM)	> 700	0.4	61	0.39 (≈ 0.261 µM)	0.16 (≈ 0.107 µM)	0.08 (≈ 0.0535 µM)	0.25 (≈ 0.167 µM)	–	0.16 (≈ 0.107 µM)	–	–
CCCCCCCCCCCCO[C@H](COP(=O)(O)OC1OC(C(N)=O)C(O)C(NC(=O)Nc2ccc(Cl)c(C(F)(F)F)c2)C1OC1OC(CO)C(O)C(O)C1NC(=O)c1cccc(C(F)(F)F)c1)C(=O)O (stereo partly specified)	100000	12.5 (≈ 11.5 µM)	0.00024	9800	3.13 (≈ 2.89 µM)	6.25 (≈ 5.77 µM)	3.13 (≈ 2.89 µM)	2.5	–	<5e-05	6.25 (≈ 5.77 µM)	6.25 (≈ 5.77 µM)	6.25 (≈ 5.77 µM)	6.25 (≈ 5.77 µM)	–	6.25 (≈ 5.77 µM)	<5e-05	–
CC(=O)NC1C(OC2C(CO)OC(OC3C(OP(=O)(O)OC[C@@H](OCCC(C)CCCCC(C)(C)CCC(C)CCC(C)CCCC(C)C)C(=O)O)OC(C(N)=O)C(C)(O)C3OC(N)=O)C(NC(C)=O)C2O)OC(C)C(O)C1O (stereo partly specified)	131	0.31 (≈ 0.267 µM)	147	16	1.56 (≈ 1.35 µM)	25 (≈ 21.6 µM)	1.56 (≈ 1.35 µM)	50.4	0.022	0.035	1.56 (≈ 1.35 µM)	0.78 (≈ 0.673 µM)	0.63 (≈ 0.543 µM)	1.56 (≈ 1.35 µM)	–	0.53 (≈ 0.457 µM)	–	–
CC(=O)NC1C(OC2C(OP(=O)(O)OC[C@@H](OCCC(C)CCCCC(C)(C)CCC(C)CCC(C)CCCC(C)C)C(=O)O)OC(C(N)=O)C(C)(O)C2OC(N)=O)OC(CO)C(O)C1O (stereo partly specified)	241	> 100	–	33	> 100	> 100	> 100	–	–	–	> 100	> 100	> 100	–	> 100	–	–	Not Active
C=C(C/C=C(\C)CCC=C(C)C)CCC(C)(C)/C=C/CC/C(C)=C\CO[C@H](COP(=O)(O)O[C@H]1O[C@@H](C(N)=O)[C@@](C)(O)[C@H](OC(N)=O)[C@@H]1O[C@@H]1O[C@@H](CO[C@@H]2O[C@@H](CO)[C@@H](O)[C@H](O)[C@@H]2O)[C@@H](O[C@@H]2O[C@@H](C)[C@@H](O[C@@H]3O[C@@H](C(=O)NC4=C(O)CCC4=O)[C@H](O)[C@H](O)[C@@H]3O)[C@H](O)[C@@H]2NC(C)=O)[C@@H](O)[C@@H]1NC(C)=O)C(=O)O [MOENOMYCIN]	31	0.025 (≈ 0.0158 µM)	143	15.6	0.13 (≈ 0.0821 µM)	> 200	0.06 (≈ 0.0379 µM)	> 700	0.48	125	0.25 (≈ 0.158 µM)	0.078 (≈ 0.0493 µM)	0.05 (≈ 0.0316 µM)	0.78 (≈ 0.493 µM)	–	0.025 (≈ 0.0158 µM)	–	–
CN[C@H](CC(C)C)C(=O)N[C@H]1C(=O)N[C@@H](CC(N)=O)C(=O)N[C@H]2C(=O)N[C@H]3C(=O)N[C@H](C(=O)N[C@H](C(=O)O)c4cc(O)cc(O)c4-c4cc3ccc4O)[C@H](O)c3ccc(c(Cl)c3)Oc3cc2cc(c3O[C@@H]2O[C@H](CO)[C@@H](O)[C@H](O)[C@H]2O[C@H]2C[C@](C)(N)[C@H](O)[C@H](C)O2)Oc2ccc(cc2Cl)[C@H]1O [VANCOMYCIN]	4500	0.78 (≈ 0.538 µM)	–	3700	1250 (≈ 863 µM)	0.39 (≈ 0.269 µM)	25 (≈ 17.3 µM)	2.6	–	–	> 1250	3.12 (≈ 2.15 µM)	–	0.78 (≈ 0.538 µM)	–	–	–	–
